The text below walks through data of patent US20220340547A1, “INDOLE DERIVATIVE-CONTAINING INHIBITOR, PREPARATION METHOD THEREFOR AND APPLICATION THEREOF” (Shanghi Hansoh Biosoh Biomedical Co., Ltd., priority 2019, published 2022).

Bounds are passed on as bounds.

In one assay the target is EGFR WT (Homo sapiens, UniProt P00533). The assay can be described thus: TR-FRET inhibition of kinase activity of wild type EGFR. The class given is biochemical. The source says: Determination of the Inhibitory Effect of the Compound of the Present Invention on the Kinase Activity of Wild Type EGFR
Sequence of EGFR WT (P00533 25-1210): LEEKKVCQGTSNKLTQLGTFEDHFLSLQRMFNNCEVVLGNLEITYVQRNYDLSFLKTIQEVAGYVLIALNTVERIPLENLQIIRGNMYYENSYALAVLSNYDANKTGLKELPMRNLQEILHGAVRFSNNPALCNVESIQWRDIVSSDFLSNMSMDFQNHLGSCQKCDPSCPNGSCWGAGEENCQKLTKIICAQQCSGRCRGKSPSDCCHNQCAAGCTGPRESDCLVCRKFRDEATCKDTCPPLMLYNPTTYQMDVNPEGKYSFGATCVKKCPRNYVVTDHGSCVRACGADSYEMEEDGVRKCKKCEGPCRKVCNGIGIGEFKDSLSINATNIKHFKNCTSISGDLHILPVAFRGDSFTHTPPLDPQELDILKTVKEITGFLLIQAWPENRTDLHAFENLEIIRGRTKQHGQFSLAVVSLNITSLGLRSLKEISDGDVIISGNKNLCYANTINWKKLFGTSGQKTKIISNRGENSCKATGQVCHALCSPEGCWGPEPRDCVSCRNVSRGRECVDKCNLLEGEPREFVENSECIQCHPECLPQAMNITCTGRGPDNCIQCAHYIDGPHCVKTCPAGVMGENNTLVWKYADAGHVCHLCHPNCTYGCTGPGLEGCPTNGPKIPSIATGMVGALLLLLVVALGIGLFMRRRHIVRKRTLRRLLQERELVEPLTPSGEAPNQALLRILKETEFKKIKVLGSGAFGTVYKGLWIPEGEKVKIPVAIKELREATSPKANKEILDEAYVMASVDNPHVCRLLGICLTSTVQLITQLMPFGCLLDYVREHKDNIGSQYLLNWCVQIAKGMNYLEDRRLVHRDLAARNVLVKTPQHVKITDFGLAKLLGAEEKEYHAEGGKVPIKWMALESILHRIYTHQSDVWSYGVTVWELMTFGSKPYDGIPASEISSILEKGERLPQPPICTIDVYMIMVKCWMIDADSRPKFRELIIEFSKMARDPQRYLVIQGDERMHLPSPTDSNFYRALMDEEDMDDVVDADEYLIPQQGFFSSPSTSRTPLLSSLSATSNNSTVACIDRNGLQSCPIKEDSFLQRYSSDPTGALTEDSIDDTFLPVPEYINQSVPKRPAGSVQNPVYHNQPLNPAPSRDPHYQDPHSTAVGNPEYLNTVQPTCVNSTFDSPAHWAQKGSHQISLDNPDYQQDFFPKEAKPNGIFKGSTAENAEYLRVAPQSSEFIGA
Experimental objective: The objective of this test example is to determine the inhibitory effect of the compound on the kinase activity of wild type EGFR.
(§1) Experimental process: The experiment applied the TR-FRET (time-resolved fluorescence resonance energy transfer) method to study the inhibitory effect of the compound on the kinase activity of wild type EGFR. The experiment was carried out in a 384-well plate. Experimental buffer (50 mM HEPES, 1 mM EGTA, 10 mM MgCl2, 2 mM DTT, 0.01% Tween-20) was formulated. The compound was diluted in gradient to different concentrations with the experimental buffer. 2 μL of the solution was added to each well of the 384-well plate. 4 μL of diluted EGFR kinase solution (0.001-0.5 nM) was added, and the plate was incubated at room temperature for 10 minutes. 4 μL of ULight-poly GT/ATP mixed solution was added, and the plate was incubated at room temperature for 30 to 60 minutes. 5 μL of EDTA stop solution and 5 μL of Eu-labeled antibody detection solution were added, and the plate was incubated at room temperature for 1 hour.
(§2) Experimental Data Processing Method:
(§3) The concentration and inhibition rate were fitted to a nonlinear regression curve by Graphpad Prism software to obtain the IC50 value.

In the next assay the target is EGFR D770_N771insNPG (Homo sapiens, UniProt P00533, INS770NPG). Kind of assay: TR-FRET inhibition of kinase activity of EGFR exon 20 insertion mutation. The class given is biochemical.
Sequence of EGFR D770_N771insNPG (P00533 with tags, fused parts or gaps INS770NPG limits assumed): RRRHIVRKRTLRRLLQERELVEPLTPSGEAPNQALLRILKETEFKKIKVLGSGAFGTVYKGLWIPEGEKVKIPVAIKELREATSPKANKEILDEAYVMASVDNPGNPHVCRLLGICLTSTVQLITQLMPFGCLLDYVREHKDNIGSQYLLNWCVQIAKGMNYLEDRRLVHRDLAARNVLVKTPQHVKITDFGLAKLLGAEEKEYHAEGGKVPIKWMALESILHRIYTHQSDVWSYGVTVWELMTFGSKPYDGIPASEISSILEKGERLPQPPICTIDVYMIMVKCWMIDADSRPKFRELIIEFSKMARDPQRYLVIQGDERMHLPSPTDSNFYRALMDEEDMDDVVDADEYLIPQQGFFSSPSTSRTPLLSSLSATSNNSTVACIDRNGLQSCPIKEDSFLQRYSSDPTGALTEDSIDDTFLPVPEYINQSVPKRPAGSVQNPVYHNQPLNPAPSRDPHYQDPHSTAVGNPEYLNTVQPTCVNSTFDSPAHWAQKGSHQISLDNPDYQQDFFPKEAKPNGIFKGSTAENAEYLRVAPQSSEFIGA
Text: Determination of the Inhibitory Effect of the Compound of the Present Invention on the Kinase Activity of EGFR Exon 20 Insertion Mutation
Experimental objective: The objective of this test example is to determine the inhibitory effect of the compound on the kinase activity of EGFR exon 20 insertion mutation.
as §1, with “of EGFR exon 20 insertion mutation.” for “of wild type EGFR.”, “buffer. 2.5” for “buffer. 2”, “plate. 2.5” for “plate. 4”, “minutes. 5” for “minutes. 4”
as §2, §3
In general terms: TR-FRET usually uses a lanthanide donor and a delayed reading to cut background.

The target of assay [1] is Ba/F3 EGFR-D770-N771ins_SVD (Homo sapiens, UniProt P00533, DUP768-770, cells depend on it). Kind of assay: Proliferation of Ba/F3 EGFR mutant cell line (CellTiter-Glo). The class given is cell-based, mouse. To be noted: 72 h to 144 h, read-out: Ba/F3 EGFR-D770-N771ins_SVD IC50. The method, then: Determination of the Inhibitory Effect of the Compound of the Present Invention on the Proliferation of Ba/F3 EGFR Mutant Cell Line and A431 Cell Line
Sequence of Ba/F3 EGFR-D770-N771ins_SVD (P00533 with tags, fused parts or gaps DUP768-770): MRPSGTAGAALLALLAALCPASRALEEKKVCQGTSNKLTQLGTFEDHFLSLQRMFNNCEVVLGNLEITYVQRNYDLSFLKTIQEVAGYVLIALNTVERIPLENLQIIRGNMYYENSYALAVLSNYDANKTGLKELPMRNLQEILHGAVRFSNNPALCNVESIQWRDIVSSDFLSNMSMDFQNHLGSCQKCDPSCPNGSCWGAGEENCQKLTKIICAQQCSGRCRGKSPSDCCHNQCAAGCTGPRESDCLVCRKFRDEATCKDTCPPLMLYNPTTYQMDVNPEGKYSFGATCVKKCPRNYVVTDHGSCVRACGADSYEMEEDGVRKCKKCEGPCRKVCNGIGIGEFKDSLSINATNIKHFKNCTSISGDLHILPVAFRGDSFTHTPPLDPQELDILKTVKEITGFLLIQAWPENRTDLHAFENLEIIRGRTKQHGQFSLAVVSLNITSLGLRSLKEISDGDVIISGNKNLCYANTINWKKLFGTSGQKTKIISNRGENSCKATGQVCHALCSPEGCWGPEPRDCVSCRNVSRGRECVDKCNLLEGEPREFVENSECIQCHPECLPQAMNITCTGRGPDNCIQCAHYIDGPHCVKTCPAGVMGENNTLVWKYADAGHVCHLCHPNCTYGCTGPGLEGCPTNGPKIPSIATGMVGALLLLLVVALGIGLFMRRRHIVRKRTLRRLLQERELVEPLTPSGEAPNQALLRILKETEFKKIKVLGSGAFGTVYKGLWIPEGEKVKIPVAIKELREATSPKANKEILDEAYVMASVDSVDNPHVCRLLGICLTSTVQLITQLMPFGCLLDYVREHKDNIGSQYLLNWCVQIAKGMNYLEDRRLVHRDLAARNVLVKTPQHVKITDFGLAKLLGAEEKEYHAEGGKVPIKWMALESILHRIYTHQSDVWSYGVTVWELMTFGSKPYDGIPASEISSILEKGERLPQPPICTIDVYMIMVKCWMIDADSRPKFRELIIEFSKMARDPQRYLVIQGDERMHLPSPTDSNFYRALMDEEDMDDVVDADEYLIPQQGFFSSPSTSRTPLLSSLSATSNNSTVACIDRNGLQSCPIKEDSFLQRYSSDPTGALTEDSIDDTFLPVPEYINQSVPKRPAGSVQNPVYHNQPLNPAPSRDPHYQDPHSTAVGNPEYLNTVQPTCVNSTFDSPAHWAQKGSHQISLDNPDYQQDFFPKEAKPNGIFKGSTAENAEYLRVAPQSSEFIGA
(§4) Experimental objective: The objective of this test example is to determine the inhibitory effect of the compound on the proliferation of Ba/F3 EGFR mutant cell line and A431 cell line
(§5) Experimental instruments: Microplate reader (BioTek Synergy H1), pipette (Eppendorf & Rainin).
Ba/F3 EGFR mutant cells were cultured, and harvested after reaching a suitable density. The cells were adjusted to an appropriate cell concentration with the complete medium. The cell suspension were spread on a 96-well plate (90 μL per well), and the plate was placed in a 37° C., 5% CO2 incubator overnight to let the cells adhere to the wall. Solutions of the compound at different concentrations were formulated with DMSO and culture medium. Solvent control was set. […] CellTiter-Glo solution was added and mixed well by shaking, and the plate was incubated in the dark for 10 minutes. The values were measured by BioTek Synergy H1 microplate reader.
as §2
(§6) The inhibition rate was calculated using the […] signal value. The concentration and inhibition rate were fitted to a nonlinear regression curve by Graphpad Prism software to obtain the IC50 value.
(In general: In ATP-based viability assays light output follows the ATP content of the culture.)

A further assay relates to A431 cell line. Kind of assay: Proliferation of A431 cell line (CellTiter-Glo). The class given is cell-based. The following applies: Homo sapiens, A-431, 72 h. Here is the method: Test Example 3. Determination of the Inhibitory Effect of the Compound of the Present Invention on the Proliferation of Ba/F3 EGFR Mutant Cell Line and A431 Cell Line
as §4, §5
A431 cells were cultured, and harvested after reaching a suitable density. The cells were adjusted to an appropriate cell concentration with the complete medium. The cell suspension were spread on a 96-well plate (90 μL per well), and the plate was placed in a 37° C., 5% CO2 incubator overnight to let the cells adhere to the wall. Solutions of the compound at different concentrations were formulated with DMSO and culture medium. Solvent control was set. The solution of the compound was added to the 96-well plate ([…]), and the plate was incubated in the 37° C., 5% CO2 incubator for 72 h. CellTiter-Glo solution was added and mixed well by shaking, and the plate was incubated in the dark for 10 minutes. The values were measured by BioTek Synergy H1 microplate reader.
as §2, §6

For the compound `C=CC(=O)Nc1cc(Nc2ncc(C(=O)OC)c(-c3cn(C)c4ccccc34)n2)c(OC)cc1N1C[C@@H]2C[C@H]1CN2C` [Example 25, Methyl 2-((5-acrylamido-2-methoxy-4-((1S,4S)-5-methyl-2,5-diazabicyclo[2.2.1]heptan-2-yl)phenyl)amino)-4-(1-methyl-1H-indol-3-yl)pyrimidine-5-carboxylate], the IC50 (usually the concentration needed to halve the response being measured) on EGFR WT came to 89.8 nM.
Same read-out and setting: for `C=CC(=O)Nc1cc(Nc2ncc(C(=O)NCc3ccccc3)c(-c3cn(C)c4ccccc34)n2)c(OC)cc1N(C)CCN(C)C` [Example 33, 2-((5-Acrylamido-4-((2-(dimethylamino)ethyl)(methyl)amino)-2-methoxyphenyl)amino)-N-benzyl-4-(1-methyl-1H-indol-3-yl)pyrimidine-5-carboxamide] the value was 133 nM.
For `C=CC(=O)Nc1cc(Nc2ncc(C#N)c(-c3cn(C4CC4)c4cccc(F)c34)n2)c(OC)cc1N(C)CCN(C)C` [Example 120, N-(5-((5-Cyano-4-(1-cyclopropyl-4-fluoro-1H-indol-3-yl)pyrimidin-2-yl)amino)-2-((2-(dimethylamino)ethyl)(methyl)amino)-4-methoxyphenyl)acrylamide], the IC50 against EGFR WT is greater than 1000 nM.
Still for that read-out and setting: for `C=CC(=O)Nc1cc(Nc2ncc(C(=O)N(C)C)c(-c3cn(C)c4ccccc34)n2)c(OC)cc1N1C[C@H]2CN(C)C[C@H]2C1` [Example 31, 2-((5-Acrylamido-2-methoxy-4-((3aR,6aS)-5-methylhexahydropyrrolo[3,4-c]pyrrol-2(1H)-yl)phenyl)amino)-N,N-dimethyl-4-(1-methyl-1H-indol-3-yl)pyrimidine-5-carboxamide] the value was greater than 1000 nM; for `C=CC(=O)Nc1cc(Nc2ncc(-c3cccs3)c(-c3cn(C4CC4)c4ccccc34)n2)c(OC)cc1N1C[C@H]2CN(C)C[C@H]2C1` [Example 46, N-(5-((4-(1-Cyclopropyl-1H-indol-3-yl)-5-(thiophen-2-yl)pyrimidin-2-yl)amino)-4-methoxy-2-((3aR,6aS)-5-methylhexahydropyrrolo[3,4-c]pyrrol-2(1H)-yl)phenyl)acrylamide], 72.7 nM; for `C=CC(=O)Nc1cc(Nc2ncc(Br)c(-c3cn(C4CC4)c4ccccc34)n2)c(OC)cc1N1C[C@H]2CN(C)C[C@H]2C1` [Example 28, N-(5-((5-Bromo-4-(1-cyclopropyl-1H-indol-3-yl)pyrimidin-2-yl)amino)-4-methoxy-2-((3aR,6aS)-5-methylhexahydropyrrolo[3,4-c]pyrrol-2(1H)-yl)phenyl)acrylamide], 63.3 nM.
The same measure, in the same setting: under `C=C(F)C(=O)Nc1cc(Nc2ncc(-c3ncco3)c(-c3cn(C4CC4)c4ccccc34)n2)c(OC)cc1N1CC(N(C)C)C1` [Example 66, N-(5-((4-(1-Cyclopropyl-1H-indol-3-yl)-5-(oxazol-2-yl)pyrimidin-2-yl)amino)-2-(3-(dimethylamino)azetidin-1-yl)-4-methoxyphenyl)-2-fluoroacrylamide] stands 50.8 nM.
`CC#CC(=O)Nc1cc(Nc2ncc(C(F)(F)F)c(-c3cn(C4CC4)c4ccccc34)n2)c(OC)cc1N1C[C@H]2CN(C)C[C@H]2C1` [Example 30, N-(5-((4-(1-Cyclopropyl-1H-indol-3-yl)-5-(trifluoromethyl)pyrimidin-2-yl)amino)-4-methoxy-2-((3aR,6aS)-5-methylhexahydropyrrolo[3,4-c]pyrrol-2(1H)-yl)phenyl)but-2-ynamide]: at EGFR WT, half-maximal inhibition (IC50) was put at 453 nM.
As for `C=CC(=O)Nc1cc(Nc2ncc(C(F)(F)F)c(-c3cn(C4CC4)c4ccccc34)n2)c(OC)cc1N1C[C@H]2CN(C)C[C@H]2C1` [Example 27, N-(5-((4-(1-Cyclopropyl-1H-indol-3-yl)-5-(trifluoromethyl)pyrimidin-2-yl)amino)-4-methoxy-2-((3aR,6aS)-5-methylhexahydropyrrolo[3,4-c]pyrrol-2(1H)-yl)phenyl)acrylamide], on EGFR WT, the IC50 stood at 121 nM.
The same measure, in the same setting: under `C=CC(=O)Nc1cc(Nc2ncc(C(=O)NC3CC3)c(-c3cn(C)c4ccccc34)n2)c(OC)cc1N1C[C@H]2CN(C)C[C@H]2C1` [Example 32, 2-((5-Acrylamido-2-methoxy-4-((3aR,6aS)-5-methylhexahydropyrrolo[3,4-c]pyrrol-2(1H)-yl)phenyl)amino)-N-cyclopropyl-4-(1-methyl-1H-indol-3-yl)pyrimidine-5-carboxamide] stands 82.9 nM; under `C=CC(=O)Nc1cc(Nc2ncc(C#N)c(-n3nc(C)c4ccccc43)n2)c(OC)cc1N(C)CCN(C)C` [Example 138, N-(5-((5-Cyano-4-(3-methyl-1H-indazol-1-yl)pyrimidin-2-yl)amino)-2-((2-(dimethylamino)ethyl)(methyl)amino)-4-methoxyphenyl)acrylamide], greater than 1000 nM.
`C=CC(=O)Nc1cc(Nc2ncc(C#N)c(-c3cn(C4CC4)c4ccccc34)n2)c(OC)cc1N1CC[C@@H](N(C)C)C1` [Example 78, (R)—N-(5-((5-Cyano-4-(1-cyclopropyl-1H-indol-3-yl)pyrimidin-2-yl)amino)-2-(3-(dimethylamino)pyrrolidin-1-yl)-4-methoxyphenyl)acrylamide]: the IC50 stood at 0.5 nM against EGFR D770_N771insNPG and 258 nM with A431 cell line. Besides, the GI50 in assay [1] stood at 48.2 nM.
The matching figures for `C=CC(=O)Nc1cc(Nc2ncc(-c3nccs3)c(-c3cn(C4CC4)c4ccccc34)n2)c(OC)cc1N1C[C@H]2CN(C)C[C@H]2C1` [Example 45, N-(5-((4-(1-Cyclopropyl-1H-indol-3-yl)-5-(thiazol-2-yl)pyrimidin-2-yl)amino)-4-methoxy-2-((3aR,6aS)-5-methylhexahydropyrrolo[3,4-c]pyrrol-2(1H)-yl)phenyl)acrylamide]: 1 nM, 210 nM and 53.4 nM.
Turning to `C=CC(=O)Nc1cc(Nc2ncc(-c3cccnc3)c(-c3cn(C4CC4)c4ccccc34)n2)c(OC)cc1N1C[C@H]2CN(C)C[C@H]2C1` [Example 64, N-(5-((4-(1-Cyclopropyl-1H-indol-3-yl)-5-(pyridin-3-yl)pyrimidin-2-yl)amino)-4-methoxy-2-((3aR,6aS)-5-methylhexahydropyrrolo[3,4-c]pyrrol-2(1H)-yl)phenyl)acrylamide], the IC50 at EGFR D770_N771insNPG worked out at 0.39 nM; with A431 cell line, 28.9 nM. The GI50 in assay [1] was determined as 17.4 nM.
On the same counts, the results for `C=CC(=O)Nc1cc(Nc2ncc(C#N)c(-c3cn(C4CC4)c4ccccc34)n2)c(OC)cc1N1C[C@H]2CN(C)C[C@H]2C1` [Example 35, N-(5-((5-Cyano-4-(1-cyclopropyl-1H-indol-3-yl)pyrimidin-2-yl)amino)-4-methoxy-2-((3aR,6aS)-5-methylhexahydropyrrolo[3,4-c]pyrrol-2(1H)-yl)phenyl)acrylamide] are 0.43 nM, 162 nM and 24.8 nM.
